Assay results: the kinase profiling compilation of Christmann-Franck et al. (2016)

Key:
Experiment in all cases: radiometric filter-binding kinase assay
[1] = target: MELK (human) (UniProt Q14680)
[2] = target: CSNK1D (human) (UniProt P48730)
[3] = target: MAPK9 (human) (UniProt P45984)
[4] = target: PAK6 (human) (UniProt Q9NQU5)
[5] = target: PRKCZ (human) (UniProt Q05513)
[6] = system: AKT2 (human), P31751 [S474D]
[7] = target: SRC (human) (UniProt P12931)
[8] = target: YES1 (human) (UniProt P07947)
[9] = target: AURKB (human) (UniProt Q96GD4)
[10] = target: CHEK1 (human) (UniProt O14757)
[11] = target: SYK (human) (UniProt P43405)
[12] = target: PKN2 (human) (UniProt Q16513)
[13] = target: EEF2K (human) (UniProt O00418)
[14] = target: FLT1 (human) (UniProt P17948)
[15] = target: MYLK (human) (UniProt Q15746)
[16] = target: GSK3B (human) (UniProt P49841)
[17] = target: MAPK1 (human) (UniProt P28482)
[18] = target: IGF1R (human) (UniProt P08069)
[19] = target: HIPK2 (human) (UniProt Q9H2X6)
[20] = target: MAPK13 (human) (UniProt O15264)
[21] = target: FGFR1 (human) (UniProt P11362)
[22] = target: MAPK10 (human) (UniProt P53779)

SRC (human), sequence (P12931 whole entry, looked up): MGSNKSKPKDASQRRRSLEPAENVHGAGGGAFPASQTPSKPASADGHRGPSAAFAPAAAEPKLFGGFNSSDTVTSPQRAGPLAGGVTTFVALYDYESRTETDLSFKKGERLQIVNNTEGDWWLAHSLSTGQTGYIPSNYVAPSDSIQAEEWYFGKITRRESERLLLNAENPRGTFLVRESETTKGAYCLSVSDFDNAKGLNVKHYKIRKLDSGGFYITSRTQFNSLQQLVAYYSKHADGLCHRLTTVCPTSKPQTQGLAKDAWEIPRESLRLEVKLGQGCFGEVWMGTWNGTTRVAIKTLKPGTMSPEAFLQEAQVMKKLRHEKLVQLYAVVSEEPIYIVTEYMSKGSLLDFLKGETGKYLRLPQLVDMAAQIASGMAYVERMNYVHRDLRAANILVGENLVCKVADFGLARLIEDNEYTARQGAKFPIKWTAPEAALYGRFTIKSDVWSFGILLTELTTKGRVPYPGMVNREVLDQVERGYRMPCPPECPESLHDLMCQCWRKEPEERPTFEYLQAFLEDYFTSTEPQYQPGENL
FGFR1 (human), sequence (P11362 whole entry, looked up): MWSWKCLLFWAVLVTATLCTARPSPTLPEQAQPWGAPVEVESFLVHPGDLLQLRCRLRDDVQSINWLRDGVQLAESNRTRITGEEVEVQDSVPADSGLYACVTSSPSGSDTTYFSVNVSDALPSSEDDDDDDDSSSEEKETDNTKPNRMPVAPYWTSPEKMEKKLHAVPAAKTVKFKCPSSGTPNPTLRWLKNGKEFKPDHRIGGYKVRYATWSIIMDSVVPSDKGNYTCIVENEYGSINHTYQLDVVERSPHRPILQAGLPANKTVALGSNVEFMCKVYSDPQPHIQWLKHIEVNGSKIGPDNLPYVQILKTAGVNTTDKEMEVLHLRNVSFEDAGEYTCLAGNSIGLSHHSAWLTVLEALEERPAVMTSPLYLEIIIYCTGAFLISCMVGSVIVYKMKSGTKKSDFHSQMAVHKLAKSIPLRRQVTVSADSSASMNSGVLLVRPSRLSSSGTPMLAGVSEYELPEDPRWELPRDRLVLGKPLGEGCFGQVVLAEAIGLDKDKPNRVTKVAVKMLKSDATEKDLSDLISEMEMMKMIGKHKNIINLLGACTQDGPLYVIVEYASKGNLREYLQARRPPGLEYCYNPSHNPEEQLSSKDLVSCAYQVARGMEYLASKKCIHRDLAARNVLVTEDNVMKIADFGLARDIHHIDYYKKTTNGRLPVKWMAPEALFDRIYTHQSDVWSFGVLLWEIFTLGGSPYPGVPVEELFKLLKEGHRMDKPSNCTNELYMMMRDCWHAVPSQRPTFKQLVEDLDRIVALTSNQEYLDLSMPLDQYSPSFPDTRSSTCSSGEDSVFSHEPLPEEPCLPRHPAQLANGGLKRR
HIPK2 (human), sequence (Q9H2X6 whole entry, looked up): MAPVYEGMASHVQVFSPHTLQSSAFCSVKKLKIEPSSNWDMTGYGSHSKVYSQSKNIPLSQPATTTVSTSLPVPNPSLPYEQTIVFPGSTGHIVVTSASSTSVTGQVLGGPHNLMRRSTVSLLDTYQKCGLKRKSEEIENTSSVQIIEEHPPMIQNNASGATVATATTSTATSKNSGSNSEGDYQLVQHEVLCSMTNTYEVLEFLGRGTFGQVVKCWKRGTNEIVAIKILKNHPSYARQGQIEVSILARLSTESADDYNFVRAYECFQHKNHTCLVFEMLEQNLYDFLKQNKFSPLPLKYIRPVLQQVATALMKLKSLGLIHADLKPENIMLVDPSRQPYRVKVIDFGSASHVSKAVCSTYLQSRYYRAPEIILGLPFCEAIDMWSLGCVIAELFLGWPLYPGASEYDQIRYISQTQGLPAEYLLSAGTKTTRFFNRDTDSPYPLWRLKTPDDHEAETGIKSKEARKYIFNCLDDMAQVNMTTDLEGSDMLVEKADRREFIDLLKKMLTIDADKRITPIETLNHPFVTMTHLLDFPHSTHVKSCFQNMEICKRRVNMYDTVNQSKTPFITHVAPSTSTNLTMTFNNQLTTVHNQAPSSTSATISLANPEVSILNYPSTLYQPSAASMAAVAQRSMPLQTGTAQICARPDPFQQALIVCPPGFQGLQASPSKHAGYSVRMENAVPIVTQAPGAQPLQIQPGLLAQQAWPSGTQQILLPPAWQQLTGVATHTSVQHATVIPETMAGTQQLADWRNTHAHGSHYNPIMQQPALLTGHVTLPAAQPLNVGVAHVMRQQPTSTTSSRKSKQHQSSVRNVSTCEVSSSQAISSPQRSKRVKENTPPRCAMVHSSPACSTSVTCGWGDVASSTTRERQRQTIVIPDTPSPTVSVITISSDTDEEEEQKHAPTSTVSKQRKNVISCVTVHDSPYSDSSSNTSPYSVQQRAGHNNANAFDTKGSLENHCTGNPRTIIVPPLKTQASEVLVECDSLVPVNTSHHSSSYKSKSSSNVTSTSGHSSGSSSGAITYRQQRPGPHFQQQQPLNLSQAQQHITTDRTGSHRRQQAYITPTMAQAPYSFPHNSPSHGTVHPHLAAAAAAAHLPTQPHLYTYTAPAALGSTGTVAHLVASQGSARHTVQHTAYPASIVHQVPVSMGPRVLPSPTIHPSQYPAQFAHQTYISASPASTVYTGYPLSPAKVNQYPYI
EEF2K (human), sequence (O00418 whole entry, looked up): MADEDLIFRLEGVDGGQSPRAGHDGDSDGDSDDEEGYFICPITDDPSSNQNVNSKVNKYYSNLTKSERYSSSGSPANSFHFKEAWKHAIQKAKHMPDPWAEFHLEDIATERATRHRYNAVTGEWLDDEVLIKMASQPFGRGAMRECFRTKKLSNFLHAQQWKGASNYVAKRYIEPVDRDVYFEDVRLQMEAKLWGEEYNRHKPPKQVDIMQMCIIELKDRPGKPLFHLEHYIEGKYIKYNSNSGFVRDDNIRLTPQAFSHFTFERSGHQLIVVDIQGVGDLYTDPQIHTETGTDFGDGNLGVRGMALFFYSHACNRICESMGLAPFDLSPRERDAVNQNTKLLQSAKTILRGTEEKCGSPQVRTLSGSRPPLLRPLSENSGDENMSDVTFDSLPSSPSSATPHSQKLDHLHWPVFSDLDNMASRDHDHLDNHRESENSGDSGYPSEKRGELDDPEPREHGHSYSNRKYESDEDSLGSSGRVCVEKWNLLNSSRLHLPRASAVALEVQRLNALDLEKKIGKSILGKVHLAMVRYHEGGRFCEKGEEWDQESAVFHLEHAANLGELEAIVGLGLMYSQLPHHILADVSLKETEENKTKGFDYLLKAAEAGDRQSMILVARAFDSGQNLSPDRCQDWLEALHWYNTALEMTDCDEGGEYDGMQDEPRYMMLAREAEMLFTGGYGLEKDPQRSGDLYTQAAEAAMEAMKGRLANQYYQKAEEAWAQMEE
MAPK9 (human), sequence (P45984 whole entry, looked up): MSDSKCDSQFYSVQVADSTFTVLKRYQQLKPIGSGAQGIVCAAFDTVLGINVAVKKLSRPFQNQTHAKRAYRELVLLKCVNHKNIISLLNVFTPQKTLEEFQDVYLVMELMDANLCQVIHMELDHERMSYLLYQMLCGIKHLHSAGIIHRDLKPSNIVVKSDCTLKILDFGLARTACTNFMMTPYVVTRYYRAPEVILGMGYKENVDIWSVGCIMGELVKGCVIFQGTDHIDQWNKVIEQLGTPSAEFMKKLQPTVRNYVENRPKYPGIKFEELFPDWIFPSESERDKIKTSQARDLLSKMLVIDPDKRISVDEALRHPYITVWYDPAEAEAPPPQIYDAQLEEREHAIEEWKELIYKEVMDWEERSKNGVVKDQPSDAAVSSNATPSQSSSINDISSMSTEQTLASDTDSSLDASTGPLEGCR
CSNK1D (human), sequence (P48730 whole entry, looked up): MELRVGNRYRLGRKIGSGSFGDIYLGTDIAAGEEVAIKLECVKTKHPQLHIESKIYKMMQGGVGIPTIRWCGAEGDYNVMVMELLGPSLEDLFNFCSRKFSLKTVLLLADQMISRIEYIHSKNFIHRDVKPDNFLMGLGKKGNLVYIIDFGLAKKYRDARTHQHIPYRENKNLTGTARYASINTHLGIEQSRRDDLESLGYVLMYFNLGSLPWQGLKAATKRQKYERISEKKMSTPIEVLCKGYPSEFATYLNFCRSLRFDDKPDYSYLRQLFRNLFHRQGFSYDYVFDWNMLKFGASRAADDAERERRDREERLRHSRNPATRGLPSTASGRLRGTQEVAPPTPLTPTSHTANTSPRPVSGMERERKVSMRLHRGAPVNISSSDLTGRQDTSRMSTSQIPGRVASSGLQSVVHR
MAPK1 (human), sequence (P28482 whole entry, looked up): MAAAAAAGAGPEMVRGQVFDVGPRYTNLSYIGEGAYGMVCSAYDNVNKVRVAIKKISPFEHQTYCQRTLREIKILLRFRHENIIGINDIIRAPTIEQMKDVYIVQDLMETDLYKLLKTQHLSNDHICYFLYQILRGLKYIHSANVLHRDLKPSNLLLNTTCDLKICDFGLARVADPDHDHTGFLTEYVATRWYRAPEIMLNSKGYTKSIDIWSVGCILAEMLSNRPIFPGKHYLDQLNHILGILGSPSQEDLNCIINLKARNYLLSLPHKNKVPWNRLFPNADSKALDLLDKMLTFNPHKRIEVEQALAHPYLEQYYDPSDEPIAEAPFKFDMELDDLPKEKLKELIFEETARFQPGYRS
MAPK13 (human), sequence (O15264 whole entry, looked up): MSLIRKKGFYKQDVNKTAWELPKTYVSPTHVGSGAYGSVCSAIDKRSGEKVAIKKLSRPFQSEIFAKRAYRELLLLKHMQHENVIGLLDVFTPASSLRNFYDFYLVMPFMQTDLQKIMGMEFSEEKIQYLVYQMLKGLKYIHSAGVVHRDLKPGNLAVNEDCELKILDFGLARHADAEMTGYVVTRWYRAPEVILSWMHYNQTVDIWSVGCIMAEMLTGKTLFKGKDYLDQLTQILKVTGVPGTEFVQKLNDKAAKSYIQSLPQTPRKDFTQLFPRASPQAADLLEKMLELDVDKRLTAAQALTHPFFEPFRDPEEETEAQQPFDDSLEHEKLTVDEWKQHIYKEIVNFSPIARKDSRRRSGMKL

## Cc1cc(SCc2sc(-c3ccc(C(F)(F)F)cc3)nc2C)ccc1OCC(=O)O
[1]; compound 1.0 µM
  residual activity: 79%
[1]; compound 10.0 µM
  residual activity: 85%
[2]; compound 1.0 µM
  residual activity: 82%
[2]; compound 10.0 µM
  residual activity: 80%
[3]; compound 10.0 µM
  residual activity: 79%
[4]; compound 1.0 µM
  residual activity: 97%
[4]; compound 10.0 µM
  residual activity: 109%
[5]; compound 1.0 µM
  residual activity: 79%
[5]; compound 10.0 µM
  residual activity: 74%
[6]; compound 1.0 µM
  residual activity: 103%
[6]; compound 10.0 µM
  residual activity: 103%
[7]; compound 1.0 µM
  residual activity: 87%
[7]; compound 10.0 µM
  residual activity: 70%
[8]; compound 1.0 µM
  residual activity: 98%
[8]; compound 10.0 µM
  residual activity: 102%
[9]; compound 1.0 µM
  residual activity: 110%
[9]; compound 10.0 µM
  residual activity: 100%
[10]; compound 1.0 µM
  residual activity: 102%
[10]; compound 10.0 µM
  residual activity: 120%
[11]; compound 1.0 µM
  residual activity: 103%
[11]; compound 10.0 µM
  residual activity: 85%
[12]; compound 1.0 µM
  residual activity: 102%
[12]; compound 10.0 µM
  residual activity: 92%
[13]; compound 1.0 µM
  residual activity: 80%
[14]; compound 1.0 µM
  residual activity: 84%
[14]; compound 10.0 µM
  residual activity: 74%
[15]; compound 1.0 µM
  residual activity: 92%
[15]; compound 10.0 µM
  residual activity: 74%
[16]; compound 1.0 µM
  residual activity: 87%
[16]; compound 10.0 µM
  residual activity: 83%
[17]; compound 1.0 µM
  residual activity: 100%
[17]; compound 10.0 µM
  residual activity: 102%
[18]; compound 1.0 µM
  residual activity: 87%
[19]; compound 1.0 µM
  residual activity: 101%
[19]; compound 10.0 µM
  residual activity: 156%
[20]; compound 1.0 µM
  residual activity: 102%
[20]; compound 10.0 µM
  residual activity: 105%
[21]; compound 1.0 µM
  residual activity: 100%
[21]; compound 10.0 µM
  residual activity: 81%

## C[C@H]1CCCC(=O)CCC/C=C/c2cc(O)cc(O)c2C(=O)O1
[1]; compound 1.0 µM
  residual activity: 97%
[1]; compound 10.0 µM
  residual activity: 66%
[2]; compound 1.0 µM
  residual activity: 99%
[2]; compound 10.0 µM
  residual activity: 83%
[3]; compound 1.0 µM
  residual activity: 46%
[3]; compound 10.0 µM
  residual activity: 65%
[4]; compound 1.0 µM
  residual activity: 99%
[4]; compound 10.0 µM
  residual activity: 94%
[5]; compound 1.0 µM
  residual activity: 98%
[5]; compound 10.0 µM
  residual activity: 86%
[6]; compound 1.0 µM
  residual activity: 97%
[6]; compound 10.0 µM
  residual activity: 89%
[7]; compound 1.0 µM
  residual activity: 89%
[7]; compound 10.0 µM
  residual activity: 34%
[8]; compound 1.0 µM
  residual activity: 79%
[8]; compound 10.0 µM
  residual activity: 35%
[9]; compound 1.0 µM
  residual activity: 37%
[9]; compound 10.0 µM
  residual activity: 23%
[10]; compound 1.0 µM
  residual activity: 92%
[10]; compound 10.0 µM
  residual activity: 81%
[11]; compound 1.0 µM
  residual activity: 93%
[11]; compound 10.0 µM
  residual activity: 84%
[12]; compound 1.0 µM
  residual activity: 70%
[12]; compound 10.0 µM
  residual activity: 33%
[13]; compound 1.0 µM
  residual activity: 101%
[13]; compound 10.0 µM
  residual activity: 85%
[14]; compound 1.0 µM
  residual activity: 95%
[14]; compound 10.0 µM
  residual activity: 69%
[15]; compound 1.0 µM
  residual activity: 104%
[15]; compound 10.0 µM
  residual activity: 59%
[16]; compound 1.0 µM
  residual activity: 47%
[16]; compound 10.0 µM
  residual activity: 11%
[17]; compound 1.0 µM
  residual activity: 98%
[17]; compound 10.0 µM
  residual activity: 96%
[18]; compound 1.0 µM
  residual activity: 93%
[18]; compound 10.0 µM
  residual activity: 64%
[19]; compound 1.0 µM
  residual activity: 100%
[19]; compound 10.0 µM
  residual activity: 63%
[20]; compound 1.0 µM
  residual activity: 84%
[20]; compound 10.0 µM
  residual activity: 87%
[21]; compound 1.0 µM
  residual activity: 90%
[21]; compound 10.0 µM
  residual activity: 51%

## Cn1nc(Nc2ccc(F)cc2)c2c(N)ncnc21
[1]; compound 1.0 µM
  residual activity: 109%
[1]; compound 10.0 µM
  residual activity: 91%
[2]; compound 1.0 µM
  residual activity: 97%
[2]; compound 10.0 µM
  residual activity: 62%
[3]; compound 1.0 µM
  residual activity: 122%
[3]; compound 10.0 µM
  residual activity: 124%
[22]; compound 1.0 µM
  residual activity: 104%
[22]; compound 10.0 µM
  residual activity: 104%
[4]; compound 1.0 µM
  residual activity: 113%
[4]; compound 10.0 µM
  residual activity: 101%
[5]; compound 1.0 µM
  residual activity: 97%
[5]; compound 10.0 µM
  residual activity: 102%
[6]; compound 1.0 µM
  residual activity: 103%
[6]; compound 10.0 µM
  residual activity: 103%
[7]; compound 1.0 µM
  residual activity: 96%
[7]; compound 10.0 µM
  residual activity: 63%
[9]; compound 1.0 µM
  residual activity: 98%
[9]; compound 10.0 µM
  residual activity: 82%
[10]; compound 1.0 µM
  residual activity: 118%
[10]; compound 10.0 µM
  residual activity: 112%
[12]; compound 1.0 µM
  residual activity: 103%
[12]; compound 10.0 µM
  residual activity: 109%
[13]; compound 1.0 µM
  residual activity: 102%
[13]; compound 10.0 µM
  residual activity: 103%
[15]; compound 1.0 µM
  residual activity: 94%
[15]; compound 10.0 µM
  residual activity: 107%
[16]; compound 1.0 µM
  residual activity: 119%
[16]; compound 10.0 µM
  residual activity: 125%
[17]; compound 1.0 µM
  residual activity: 107%
[17]; compound 10.0 µM
  residual activity: 110%
[19]; compound 1.0 µM
  residual activity: 113%
[19]; compound 10.0 µM
  residual activity: 105%
[20]; compound 1.0 µM
  residual activity: 104%
[20]; compound 10.0 µM
  residual activity: 109%
